The source of these data is US6822100B2 (Bristol-Myers Squibb Company, priority 2001, dated 2004).

Read-outs that look alike come from different tables or passages of the source. Bounds are passed on as bounds.

Experiment [1] concerns the target T1, human serotonin transporters (Homo sapiens, UniProt P31645).
T1 construct: expressed in transfected cells; host or cells: HEK-293 (HEK-hSERT), membrane homogenates
Briefly: Serotonin Transporter Binding Assay. To be noted: HEK-hSERT cell membranes, 1 nM [3H]-citalopram, Cheng and Prusoff. As for the experimental part:
HEK-293 cells that stably express human serotonin transporters (HEK-hSERT cells) were grown at 37° C. in 5% CO2 as a monolayer in medium consisting of EMEM supplemented with 10% fetal bovine serum and G418 sulfate (500 μg/ml). To prepare membranes for radioligand binding experiments, cells were rinsed twice with phosphate-buffered saline (138 mM NaCl, 4.1 mM KCl, 5.1 mM Na2PO4, 1.5 mM […], 11.1 mM glucose, pH 7.4). Cells were transferred from plates to polypropylene tubes (16×100 mm), centrifuged at 1,200×g for 5 min and were frozen at −80° C. until assay. Following centrifugation, pellets were resuspended by homogenization in buffer consisting of 50 mM Tris (pH 7.7 at 25° C.), 120 mM NaCl and 5 mM KCl and then centrifuged at 32,000×g for 10 min. Following centrifugation, supernatants were discarded and pellets were resuspended in buffer consisting of 50 mM Tris (pH 7.4 at 25° C.), 150 mM NaCl and 5 mM KCl. Membrane homogenates (200 μl/plate) were incubated with 1 nM [^3H]-citalopram (specific activity=85 Ci/mmol) and increasing concentrations of test compounds for 1 hr at 25° C. in a total volume of 250 μl. The assay buffer consisted of 50 mM Tris (pH 7.4 at 25° C.), 120 mM NaCl and 5 mM KCl (pH 7.4 with conc. HCl). Plates were incubated for 1 hr at 25° C., then filtered through 0.5% PEI treated Whatman GF/B filters using a Brandel cell harvester. Filters were washed three times with 3 ml of ice-cold tris wash buffer. Non-specific binding was defined with 10 μM fluoxetine. Amount of radioligand bound in the presence and absence of competitor was analyzed by plotting (−)log drug concentration versus the amount of radioligand specifically bound. The midpoint of the displacement curve (IC50, nM), signifies the potency. Ki values were calculated using the method of Cheng and Prusoff (1973).

Experiment [2] concerns the target T2, recombinant human dopamine D2L receptors (Homo sapiens, UniProt P14416).
T2 construct: expressed in transfected cells; host or cells: HEK-293 (HEK-D2L), membrane homogenates
Briefly: Dopamine Binding Assay. To be noted: HEK-D2L cell membranes, 150 pM [3H]-spiperone, Cheng and Prusoff. On the procedure: HEK-293 cells that stably express recombinant human dopamine D2L receptors (HEK-D2L cells) were grown at 37° C. in 5% CO2 as a monolayer in medium consisting of EMEM supplemented with 10% fetal bovine serum and G418 sulfate (500 μg/ml). To prepare membranes for radioligand binding experiments, cells were rinsed twice with phosphate-buffered saline (138 mM NaCl, 4.1 mM KCl, 5.1 mM Na2PO4, 1.5 mM KH2PO2 11.1 mM glucose, pH 7.4), and incubated for 5-10 min. at 4° C. in hypotonic lysis buffer consisting of 10 mM Tris (pH 7.4) and 5 mM EDTA. Cells were transferred from plates to polypropylene tubes (16×100 mm), homogenized and centrifuged at 32,000×g for 20 min. Following centrifugation, pellets were resuspended by homogenization in buffer consisting of 50 mM Tris (pH 7.7 at 25° C.) and 1 mM EDTA. Homogenates were stored at −80° C. until needed. On the day of an experiment, homogenates were thawed then centrifuged at 32,000×g for 20 min. Following centrifugation, supernatants were discarded and pellets were resuspended in assay buffer consisting of 50 mM Tris (pH 7.4 at 25° C.), 1 mM EDTA and 6 mM MgCl2. Membrane homogenates (˜5 μg) were incubated with 150 pM [^3H]-spiperone (Amersham Life Science) and increasing concentrations of test compounds for 1.5 hr at 22° C. in a total volume of 400 μl. Reactions were stopped by addition of ice-cold assay buffer and filtration over glass fiber filters (Whatman GFB, pre-soaked in 0.05% polyethylenimine) using a microtitre format Brandel cell harvester. Filters were washed with 3 ml of ice-cold assay buffer. Non-specific binding was defined with 2 μM (+)butaclamol. Ki values were calculated using the method of Cheng and Prusoff (1973). Protein concentrations were determined by the method of Bradford (1976) with BSA as a standard.

T2 sequence (P14416 whole entry): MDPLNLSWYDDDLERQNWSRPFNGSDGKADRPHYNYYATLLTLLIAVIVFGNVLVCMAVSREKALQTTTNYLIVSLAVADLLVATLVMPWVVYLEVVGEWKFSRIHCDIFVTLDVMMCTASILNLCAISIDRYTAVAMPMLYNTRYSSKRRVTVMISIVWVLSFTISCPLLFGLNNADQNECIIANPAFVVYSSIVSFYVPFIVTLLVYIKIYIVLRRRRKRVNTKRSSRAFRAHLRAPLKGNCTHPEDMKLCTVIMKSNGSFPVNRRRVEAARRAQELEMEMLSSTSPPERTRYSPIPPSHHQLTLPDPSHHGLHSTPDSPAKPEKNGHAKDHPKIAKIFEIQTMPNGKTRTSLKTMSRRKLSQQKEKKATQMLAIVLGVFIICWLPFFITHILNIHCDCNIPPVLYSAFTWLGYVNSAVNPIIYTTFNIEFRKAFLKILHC
T1 sequence (P31645 whole entry): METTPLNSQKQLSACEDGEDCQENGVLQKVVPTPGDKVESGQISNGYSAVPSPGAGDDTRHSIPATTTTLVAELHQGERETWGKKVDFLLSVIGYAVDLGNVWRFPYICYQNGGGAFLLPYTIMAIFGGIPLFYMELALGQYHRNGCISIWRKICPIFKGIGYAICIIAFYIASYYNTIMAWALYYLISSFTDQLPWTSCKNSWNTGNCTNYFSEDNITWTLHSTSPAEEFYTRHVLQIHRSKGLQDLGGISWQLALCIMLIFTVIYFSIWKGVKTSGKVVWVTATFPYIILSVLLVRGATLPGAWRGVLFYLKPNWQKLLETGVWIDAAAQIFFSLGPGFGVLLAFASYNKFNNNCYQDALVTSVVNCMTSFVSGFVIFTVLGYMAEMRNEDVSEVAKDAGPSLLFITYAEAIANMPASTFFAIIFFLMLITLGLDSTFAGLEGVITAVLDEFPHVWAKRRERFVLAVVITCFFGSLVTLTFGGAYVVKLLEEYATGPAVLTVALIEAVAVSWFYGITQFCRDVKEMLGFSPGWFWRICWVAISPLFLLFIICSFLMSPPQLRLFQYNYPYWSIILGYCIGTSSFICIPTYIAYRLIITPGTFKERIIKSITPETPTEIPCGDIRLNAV

Broadly, the Ki is a dissociation constant, usually derived from enzyme kinetics or from competition with a known ligand. As to `CCOC(=O)NCCCN(CC)C[C@@H]1C[C@H]1c1c[nH]c2ccc(C#N)cc12` (relative stereo) [Example 98, trans-2-[5-Cyanoindol-3-yl]-1-[N,N-ethyl-2-amino(ethylcarbamoyl)propylaminomethyl]-cyclopropane], the Ki was 1 to 10 nM in experiment [1] (read-out: SERT Ki) and 100 to 1000 nM in experiment [2].
As for `COc1ccccc1CNCC1CC1c1c[nH]c2ccc(F)cc12` (stereo not drawn) [Example 50, trans-2-[5-Fluoroindol-3-yl]-1-[N-(2-methoxybenzyl)aminomethyl]-cyclopropane], the Ki in experiment [1] (read-out: SERT Ki) is 1 to 10 nM; in experiment [2], 10 to 100 nM.
As for `CCCN(CCC)CC1CC1c1c[nH]c2ccc(C#N)cc12` (stereo not drawn) [Example 38, trans-2-[5-Cyanoindol-3-yl]-1-[N,N-dipropylaminomethyl]-cyclopropane], the Ki in experiment [1] (SERT Ki (nM)) was 1 to 10 nM; in experiment [2], above 1000 nM.
In the case of `CN(CCCC1CC1c1c[nH]c2ccc(C#N)cc12)Cc1ccccc1` (stereo not drawn) [Example 180, Trans-2-[5-cyanoindol-3-yl]-1-(3-(N-benzyl-N-methylamino)propyl)cyclopropane], the Ki lay within 10 to 100 nM in experiment [1] (read-out: SERT Ki) and 100 to 1000 nM in experiment [2].
Consider `COc1ccccc1CNC[C@@H]1C[C@H]1c1c[nH]c2ccc(C#N)cc12` (relative stereo) [Example 8, trans-2-[5-Cyanoindol-3-yl]-1-[N-(2-methoxybenzyl)aminomethyl]-cyclopropane], for which the inhibitory constant (Ki) fell in the range of 1 to 10 nM in experiment [1] (read-out: SERT Ki) and 100 to 1000 nM in experiment [2].
For `Fc1ccc2[nH]cc(C3CC3CNCc3cccs3)c2c1` (stereo not drawn) [Example 66, trans-2-[5-Fluoroindol-3-yl]-1-[N-2-thiopheneylmethylaminomethyl]-cyclopropane], in that order: 10 to 100 nM and 100 to 1000 nM.
Turning to `CCCOC(=O)NCCCN(C)C[C@@H]1C[C@H]1c1c[nH]c2ccc(F)cc12` (relative stereo) [Example 106, trans-2-[5-Fluoroindol-3-yl]-1-[N,N-methyl-2-amino(propylcarbamoyl)propylaminomethyl]-cyclopropane], the inhibitory constant (Ki) in experiment [1] (read-out: SERT Ki) is 10 to 100 nM; in experiment [2], 100 to 1000 nM.
Taken in the same sequence, the figures for `CNC[C@H]1C[C@@H]1c1c[nH]c2ccc(C#N)cc12` [Example 120, (1S,2S)-trans-2-[5-Cyanoindol-3-yl]-1-(N-methylaminomethyl)cyclopropane] were 1 to 10 nM and 100 to 1000 nM.
Taken in the same sequence, the figures for `Fc1ccc2[nH]cc(C3CC3CNCCc3c[nH]c4ccccc34)c2c1` (stereo not drawn) [Example 68, trans-2-[5-Fluoroindol-3-yl]-1-[N-2-(3-indolyl)ethylaminomethyl]-cyclopropane] were 1 to 10 nM and 10 to 100 nM.
Taken in the same sequence, the figures for `Fc1ccc2[nH]cc(C3CC3CNC3CCCCC3)c2c1` (stereo not drawn) [Example 70, trans-1-[N-Cyclohexylaminomethyl]-2-[5-fluoroindol-3-yl]-cyclopropane] were 10 to 100 nM and 100 to 1000 nM.
In the case of `N#Cc1ccc2[nH]cc([C@@H]3C[C@H]3CNCCc3ccccc3F)c2c1` (relative stereo) [Example 17, trans-2-[5-Cyanoindol-3-yl]-1-[N-2-(2-fluorophenyl)ethylaminomethyl]-cyclopropane], the inhibitory constant (Ki) in experiment [1] (read-out: SERT Ki) lay within 1 to 10 nM; in experiment [2], 10 to 100 nM.
For `CN(Cc1ccccc1)C[C@@H]1C[C@H]1c1c[nH]c2ccc(C#N)cc12` (relative stereo) [Example 3, Trans-2-[5-Cyanoindol-3-yl]-1-[N,N-methyl-benzylaminomethyl]-cyclopropane], in that order: below 1 nM and 100 to 1000 nM.
For `CN(C)CCCC1CC1c1c[nH]c2ccc(C#N)cc12` (stereo not drawn) [Example 174, Trans-2-[5-cyanoindol-3-yl]-1-(3-(N,N-dimethylamino)propyl)cyclopropane], the Ki in experiment [1] (read-out: SERT Ki) was in the range of 10 to 100 nM; in experiment [2], 100 to 1000 nM.
Taken in the same sequence, the figures for `CN(CCc1ccccc1)C[C@@H]1C[C@H]1c1c[nH]c2ccc(C#N)cc12` (relative stereo) [Example 39, trans-2-[5-Cyanoindol-3-yl]-1-[N,N-methyl-phenylethylaminomethyl]-cyclopropane] were 1 to 10 nM and 10 to 100 nM.
In the case of `N#Cc1ccc2[nH]cc(C3CC3CCN3CCCC3)c2c1` (centres unmarked) [Example 145, 3-[2-(2-Pyrrolidin-1-yl-ethyl)-cyclopropyl]-1H-indole-5-carbonitrile], the Ki fell in the range of 10 to 100 nM in experiment [1] (read-out: SERT Ki) and 100 to 1000 nM in experiment [2].
With `CN(C)CC1CC1c1c[nH]c2ccc(C#N)cc12` (single isomer, unassigned) [Example 129b, Cis-2-[5-Cyanoindol-3-yl]-1-(N,N-dimethylaminomethyl)cyclopropane], the inhibition constant Ki is 1 to 10 nM in experiment [1] (SERT Ki (nM)) and above 1000 nM in experiment [2].
With `Fc1ccc(CNCC2CC2c2c[nH]c3ccc(F)cc23)cc1` (stereo not drawn) [Example 55, trans-1-[N-(4-Fluorobenzyl)aminomethyl]2-[5-fluoroindol-3-yl]-cyclopropane], the inhibition constant (Ki) in experiment [1] (read-out: SERT Ki) lay in the range of 10 to 100 nM; in experiment [2], 100 to 1000 nM.
Taken in the same sequence, the figures for `CN(C)C[C@@H]1C[C@H]1Cc1c[nH]c2ccc(F)cc12` (single isomer, unassigned) [Example 149, (−)-[2-(5-Fluoro-1H-indol-3-ylmethyl)-cyclopropylmethyl]-dimethylamine] were 1 to 10 nM and 100 to 1000 nM.
Regarding `CC([C@@H]1C[C@H]1c1c[nH]c2ccc(C#N)cc12)N(C)C` (single isomer, unassigned) [Example 122A, trans-3-[2-(1-Dimethylamino-ethyl)-cyclopropyl]-1H-indole-5-carbonitrile], the Ki in experiment [1] (SERT Ki (nM)) is below 1 nM; in experiment [2], above 1000 nM.
For the compound `N#Cc1ccc2[nH]cc([C@@H]3C[C@H]3CNCCc3c[nH]cn3)c2c1` (relative stereo) [Example 23, trans-2-[5-Cyanoindol-3-yl]-1-[N-2-(4-imidazolyl)ethylaminomethyl]-cyclopropane], the Ki in experiment [1] (read-out: SERT Ki) and in experiment [2] was 10 to 100 nM in each case.
For `COc1ccccc1CCNC[C@@H]1C[C@H]1c1c[nH]c2ccc(C#N)cc12` (relative stereo) [Example 41], the inhibition constant Ki in experiment [1] (read-out: SERT Ki) was 1 to 10 nM; in experiment [2] it was 10 to 100 nM.
For `N#Cc1ccc2[nH]cc([C@@H]3C[C@H]3CCCN3CCCC3)c2c1` (relative stereo) [Example 179, Trans-2-[5-cyanoindol-3-yl]-1-(3-(1-pyrrolidino)propyl)cyclopropane], in that order: 10 to 100 nM and 100 to 1000 nM.
On to `CCNCCCC1CC1c1c[nH]c2ccc(C#N)cc12` (stereo not drawn) [Example 176, Trans-2-[5-cyanoindol-3-yl]-1-(3-(N-ethylamino)propyl)cyclopropane], for which the Ki is 10 to 100 nM in experiment [1] (read-out: SERT Ki) and 100 to 1000 nM in experiment [2].
`N#Cc1ccc2[nH]cc(C3CC3CN3CCCCC3)c2c1` (stereo not drawn) [Example 47, trans-2-[5-Cyanoindol-3-yl]-1-[piperidin-1-yl-methyl]-cyclopropane]: the results for the Ki in experiment [1] (read-out: SERT Ki) and in experiment [2] were 10 to 100 nM and 100 to 1000 nM, respectively.
Regarding `CN(C)CC1CC1c1c[nH]c2ccc(C#N)cc12` (single isomer, unassigned) [Example 117, Cis-2-[5-Cyanoindol-3-yl]-1-(N,N-dimethylaminomethyl)cyclopropane], the inhibition constant (Ki) in experiment [1] (SERT Ki (nM)) is 1 to 10 nM; in experiment [2], above 1000 nM.
